BigSolDB 2.1

NC(=NCCCCCCN=C(N)/N=C(\N)Nc1ccc(Cl)cc1)/N=C(\N)Nc1ccc(Cl)cc1
solubility (mole fraction)
Settings	283.15 K	288.15 K	293.15 K	298.15 K	303.15 K	308.15 K	313.15 K	318.15 K	323.15 K
in 1,4-dioxane	–	0.000569	0.000674	0.000764	0.000888	0.00102	0.00117	0.00133	0.00153
in DMF	0.00795	0.00941	0.0111	0.0131	0.0153	0.018	0.0206	0.0241	0.0277
in ethanol	0.000405	0.000471	0.000539	0.000613	0.000706	0.000803	0.000914	0.00103	0.00117
in methanol	0.000656	0.000751	0.000846	0.000967	0.00108	0.00123	0.00137	0.00154	0.00173
in water	1.45e-06	2.03e-06	2.79e-06	3.84e-06	5.21e-06	7.06e-06	9.32e-06	1.23e-05	1.62e-05
